Experimental data: PubChem BioAssay AID1250 (SRMLSC, 2008)
The source made the active and inactive calls.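 The calls were made as follows: active = inhibition of at least 30% at one or more tested concentrations; inactive = inhibition below 30% at every dose.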

assay: antiviral protection against BTV-induced cell death – arbovirus, BSR cells, confirmation (AID 1250); details: BSR cells, Bluetongue virus CPE, ATP luminescence, 72 h; at 20 µM (top of the series)

SMILES	CPE inhibition
COc1ccc2c(c1)c1nc3ccccc3nc1n2Cc1ccc(OC)c(OC)c1	15.8% (inactive)
Cc1[nH]c2ccccc2c1C1=CCNCC1	3.08% (inactive)
CCCCN(CCCC)CC(O)COc1ccccc1Br (stereo unspecified)	15.3% (inactive)
Cc1nn2c(-c3ccccc3)c(-c3ccccc3)nc2[nH]c1=O	9.59% (inactive)
O=C(CSCC(=O)N1CCCCC1)OCC(=O)c1c[nH]c2ccccc12	-2.4% (inactive)
O=C(c1coc(=O)c(Br)c1)N1CCCc2ccccc21	4.27% (inactive)
O=C(Nc1sc2c(c1C(=O)O)CCC2)c1cccs1	14.7% (inactive)
Oc1ccc(Br)cc1-c1cc(-c2ccccc2)n[nH]1	19.6% (inactive)
CCOC(=O)c1cnc(SCc2nc(N)nc(Nc3ccc(C)cc3)n2)nc1N	29.3% (inactive)
O=C(O)CSc1nc(-c2ccc(Cl)cc2)nc2c1oc1ccccc12	24.1% (inactive)
C(=N\Nc1nc(-c2ccccc2)cs1)/c1ccco1	20.9% (inactive)
CC(C)(C)C1CCc2c(sc(NC(=O)C3CC=CCC3C(=O)O)c2C#N)C1 (stereo unspecified)	26.8% (inactive)
O=C1N=c2ccccc2=C1c1sc(Nc2ccc(O)cc2)nc1O	14.8% (inactive)
COc1cc(C2N=C(c3ccccc3)NO2)cc(Br)c1O (stereo unspecified)	18.4% (inactive)
CC1Cc2ccccc2N1S(=O)(=O)c1cccc(C(=O)N2CCN(c3ncccn3)CC2)c1 (stereo unspecified)	19.4% (inactive)
CCOC(=O)c1ccc(NC(=O)Cn2nnc(-c3ccccc3)n2)cc1	12.9% (inactive)
CCOC(=O)c1ccc(NC(=S)N2CCSC2c2c(F)cc(F)cc2F)cc1 (stereo unspecified)	11.8% (inactive)
Clc1cccc(-c2cc3nc4c(c(NCc5ccco5)n3n2)CCCC4)c1	10.7% (inactive)
COC(=O)c1cc(NC(=S)NCc2ccc(Cl)cc2)cc(C(=O)OC)c1	-1.18% (inactive)
Cc1cccc(CSc2nnc(NC(=O)CSc3nnc(C)s3)s2)c1	17.3% (inactive)
Cc1csc(NC(=O)CN2C(=O)C3CC=CCC3C2=O)n1 (stereo unspecified)	1.87% (inactive)
CN(c1ccccc1)c1ccc(/C=C(\CCC(=O)O)c2nc3ccccc3s2)cc1[N+](=O)[O-]	21.4% (inactive)
CN(Cc1ccccc1)c1nc(N)c([N+](=O)[O-])c(NCc2ccccc2)n1	-7.95% (inactive)
N#CCSc1nc(N)c(C#N)c(C2CCCCC2)c1C#N	6.59% (inactive)

SMILES	CPE inhibition
COC(=O)c1ccccc1NC(=O)C1CCN(C(=O)c2cc(OC)c(OC)c(OC)c2)CC1	1.96% (inactive)
C=CCn1c(SC(C)C(N)=O)nc2sc(CC)cc2c1=O (stereo unspecified)	18% (inactive)
Oc1ccc(Br)cc1-c1nc2cnccn2c1NC1CCCC1	16.6% (inactive)
Cc1cccc(Sc2nc(-c3ccccc3)ncc2C(=O)O)c1	7.57% (inactive)
COc1ccc2ccc(O)c(CN3CC=C(c4ccccc4)CC3)c2c1	14.6% (inactive)
Fc1ccc(Br)cc1C1C=C(c2ccc(Br)cc2)Nc2ncnn21 (stereo unspecified)	2.77% (inactive)
COc1ccc(-c2csc(NC(=O)Cc3cccc4ccccc34)c2C(=O)O)cc1	24.9% (inactive)
COc1ccc(C2=Nn3c(nnc3-c3ccncc3)SC2)cc1OC	20.1% (inactive)
Cc1csc(NC(=O)c2ccc(C)c(S(=O)(=O)N3CCCCC3)c2)n1	24.1% (inactive)
CCOC(=O)C(NC(=O)c1cccc(Cl)c1)(OCc1ccc(F)cc1)C(F)(F)F (stereo unspecified)	-3.2% (inactive)
O=C(Nn1c(SCc2cccc([N+](=O)[O-])c2)nc2ccccc2c1=O)c1ccccc1	29.8% (inactive)
C=CCSc1nnc(NC(=O)CSc2nc3ccccc3o2)s1	21.8% (inactive)
CC(=O)Nc1ccc(SCC(=O)N(CCC#N)c2cc(C)cc(C)c2)cc1	18% (inactive)
CCOC(=O)c1ccc(N2CCN(c3ccccc3F)CC2)c(NC(=O)Nc2ccccc2)c1	19.7% (inactive)
CCCc1cc(=O)[nH]c(SCc2ccc(C#N)cc2)n1	14.6% (inactive)
CC(C)n1c(NCCc2ccccc2)nc2c1c(=O)n(C)c(=O)n2C	7.91% (inactive)
N#Cc1c2n(c3c(=S)nc[nH]c13)CCCCC2	9.66% (inactive)
COCCn1c(C)cc(C(=O)CSc2cc(C)c3ccccc3n2)c1C	7.16% (inactive)
Cc1ccc(C)c(N2CCN(C(=O)Cc3ccc(-n4c(=O)[nH]c5ccsc5c4=O)cc3)CC2)c1	13.2% (inactive)
COC1=C/C(=C/c2c(N)n3nc(-c4ccc(C)cc4)sc3nc2=O)C=CC1=O	29.9% (inactive)
COc1ccc(C(=O)Nc2ccccc2C(=O)O)cc1Cl	24.1% (inactive)
O=C(O)c1cc(-c2ccc(/C=N/Nc3ccc([N+](=O)[O-])cn3)o2)ccc1Cl	21.4% (inactive)
COc1ccc(C)cc1NC(=O)C1COc2ccccc2O1 (stereo unspecified)	11.1% (inactive)
Cc1ccc(S(=O)(=O)N2CCN(Cc3cc(C(C)C)ccc3O)CC2)cc1	15.9% (inactive)

SMILES	CPE inhibition
CCOC(=O)c1ccc(NC(=O)CC2S/C(=N/N=C/c3c[nH]c4ccccc34)NC2=O)cc1 (stereo unspecified)	11.7% (inactive)
O=C(Nc1ccccc1C(=O)O)c1ccc(Br)c(S(=O)(=O)NCc2ccccc2)c1	21.6% (inactive)
COCCn1c(-c2ccccc2Cl)nc2c(c(=O)c3ccccc3n2C)c1=O	4.39% (inactive)
C=CCN(C(=O)c1cccc(N2C(=O)C3CC=CC(C)C3C2=O)c1)c1ccccc1 (stereo unspecified)	8.5% (inactive)
COc1ccc(C2=CC(c3ccc(C)cc3)n3nnnc3N2)cc1 (stereo unspecified)	6.94% (inactive)
Cc1nnc2sc(SCc3cccc(Cl)c3)nn2c1=O	14.2% (inactive)
Cc1ccccc1-n1nc(CSc2nc3ccccc3[nH]2)c(-c2ccccc2)c1N	14.9% (inactive)
CCSc1nnc(NC(=O)c2ccc(Br)s2)s1	16.8% (inactive)
Cc1ccc(CSc2nnc(NC(=O)C3COc4ccccc4O3)s2)cc1 (stereo unspecified)	26.6% (inactive)
O=C(Nc1scc(-c2ccc(F)cc2)c1C(=O)O)c1ccco1	10% (inactive)
Cc1ccc2nc(NC(=O)C3CCN(S(=O)(=O)c4cnc[nH]4)CC3)sc2c1	14% (inactive)
CN(C)Cc1c(O)c(Cl)cc2c3c(c(=O)oc12)CCCC3	-0.25% (inactive)
O=C(O)c1ccc(COc2ccc3ccccc3c2/C=C2/NC(=O)N(Cc3ccc(F)cc3)C2=O)cc1	7.43% (inactive)
COc1ccc(CCN(C)Cc2ccc(F)cc2F)cc1OC	3.03% (inactive)
CCc1ccc(C2=CC(c3cc(Br)ccc3F)n3ncnc3N2)cc1 (stereo unspecified)	-5.9% (inactive)
CC(C)(C)c1ccc(C(=O)NC(=S)NCC2CCCO2)cc1 (stereo unspecified)	3.96% (inactive)
Cc1ccc(C(=O)Nc2ccccc2SCC2CSc3nc4ccccc4c(=O)n32)cc1 (stereo unspecified)	14.6% (inactive)
CC1CC1C(=O)Nc1nc(-c2ccc(Cl)s2)cs1 (stereo unspecified)	12% (inactive)
Cn1cc(CN2CCN(c3ccccc3)CC2)c2ccccc21	12% (inactive)
Cc1ccccc1S(=O)(=O)Nc1ncnc2scc(-c3ccccc3)c12	20.4% (inactive)
O=Cc1cn(-c2ccccc2)nc1-c1cc2cc(O)ccc2oc1=O	9.88% (inactive)
O=C/C(=C\Nc1ccc(Cl)cn1)c1nc2cc(Cl)ccc2o1	10.2% (inactive)
COc1ccc(NS(=O)(=O)c2cc(NC(=O)/C=C/c3cccs3)ccc2N2CCOCC2)cc1	18.4% (inactive)
CCOC(=O)C1(CCCc2ccccc2)CCN(C2CCSCC2)CC1	11.3% (inactive)

SMILES	CPE inhibition
COc1ccc(/C=C/c2nc(-c3ccccc3O)n[nH]2)cc1OC	14% (inactive)
Cc1noc(C)c1C(=O)OCC(=O)Nc1cc(Cl)ccc1Oc1ccccc1	22.6% (inactive)
O=C(CN1CCCCCC1)N/N=C/c1cccs1	-0.49% (inactive)
CSc1ccccc1NC(=O)CO/N=C(\C)c1cc2ccccc2o1	12.9% (inactive)
Cc1c(C(=O)NC(Cc2ccccc2)c2nc3ccccc3[nH]2)cccc1[N+](=O)[O-] (stereo unspecified)	13.5% (inactive)
O=c1c(Cl)c(N2CCN(c3ccc(F)cc3)CC2)cnn1C12CC3CC(CC(C3)C1)C2	-3.76% (inactive)
Cc1oc(-c2ccccc2Cl)nc1CSCC(=O)N1CCCC1	16.4% (inactive)
Cc1ccccc1N=C1NC(=O)/C(=C/c2cccn2-c2cccc(C(=O)O)c2)S1	21.3% (inactive)
COc1ccccc1N1CCN(Cc2ccc(OC)c3ccccc23)CC1	11.1% (inactive)
O=C(c1ccc2ccccc2n1)N1CCN(c2ccccc2Cl)CC1	8.76% (inactive)
O=C(Nc1c(-c2ccccc2)nc2ccccn12)c1cccs1	20.6% (inactive)
COc1ccc(Br)cc1CN(C)CC(=O)Nc1c(Cl)cccc1Cl	28.5% (inactive)
COc1ccc2nc(NC(=O)C3=NN(c4ccccc4)C(=O)CC3)sc2c1	-2.13% (inactive)
O=C(O)c1cc(N/N=C2/CC(c3ccccc3)Oc3ccccc32)ccc1Cl (stereo unspecified)	16.6% (inactive)
O=CNCC(=O)NCCc1ccc(Cl)cc1	1.49% (inactive)
C/C(=N\NC(=O)c1c(Cl)c(C)nn1C)c1ccc(NC(=O)c2ccncc2)cc1	17.7% (inactive)
CCN(Cc1ccncc1)Cc1c(O)ccc2cc(Br)ccc12	8.02% (inactive)
O=C(CSc1nccc(=O)[nH]1)N1N=C2/C(=C/c3ccco3)CCCC2C1c1ccco1 (stereo unspecified)	21.5% (inactive)
O=C1c2ccccc2N2C(=O)c3ccccc3[C@H]2N1c1ccccc1	2.15% (inactive)
CCCn1c2c(c(O)c(C(=O)Nc3nc4ccccc4s3)c1=O)CCCC2	19.3% (inactive)
O=C(CSc1nnc(NC(=O)c2c(F)cccc2F)s1)Nc1ccc(F)cc1	3.41% (inactive)
CCOC(=O)CC1=NS(=O)(=O)c2ccccc2N1	2.01% (inactive)
Cc1ccc(N2CN=c3s/c(=C\c4ccccn4)c(=O)n3C2)cc1	-1.84% (inactive)
COc1ccccc1C(=O)NCC1CCN(c2ccc(S(=O)(=O)N3CCOCC3)cc2)CC1	6.04% (inactive)
